According to US20260125382A1, “COMPOUNDS FOR INHIBITING OR DEGRADING CDK2 AND/OR CDK9 AND MEDICINAL USE THEREOF” (KOREA RESEARCH INSTITUTE OF CHEMICAL TECHNOLOGY, priority 2022, published 2026):

Legend:
CDK9 = biological target: T1, CDK9 (Homo sapiens, UniProt P50750); assay: CDK protein degradation activity (Western blotting), CDK9; type: cell-based; details: MDA-MB-231 cells, 16 hours, Western blot
T1 construct: endogenous in cells; host or cells: MDA-MB-231
Method in brief: (§1)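 Breast cancer line MDA-MB-231, 16 h compound treatment (100 nM–10 μM final, three doses). Immunoblot quantification of CDK2/CDK9 versus tubulin, normalized to DMSO control.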

CDK2 = biological target: T2, CDK2 (Homo sapiens, UniProt P24941); assay: CDK protein degradation activity (Western blotting), CDK2; type: cell-based; details: MDA-MB-231 cells, 16 hours, Western blot
T2 construct: endogenous in cells; host or cells: MDA-MB-231
Method in brief: as §1

T1 sequence (P50750 whole entry): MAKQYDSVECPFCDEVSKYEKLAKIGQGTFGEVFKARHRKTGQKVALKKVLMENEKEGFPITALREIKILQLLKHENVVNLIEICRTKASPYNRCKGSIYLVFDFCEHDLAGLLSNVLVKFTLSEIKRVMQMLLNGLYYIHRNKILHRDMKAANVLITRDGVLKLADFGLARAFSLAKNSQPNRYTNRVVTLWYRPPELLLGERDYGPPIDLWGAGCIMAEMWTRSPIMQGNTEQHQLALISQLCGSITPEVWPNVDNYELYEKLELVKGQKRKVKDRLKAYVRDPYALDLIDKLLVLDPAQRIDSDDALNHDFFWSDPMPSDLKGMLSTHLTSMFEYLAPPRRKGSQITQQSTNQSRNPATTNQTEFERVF

Row | SMILES | Enzyme degradation CDK9 (% remaining) @ 0.1 μM (CDK9) | Enzyme degradation CDK9 (% remaining) @ 1 μM (CDK9) | Enzyme degradation CDK9 (% remaining) @ 10 μM (CDK9) | Enzyme degradation CDK2 (% remaining) @ 0.1 μM (CDK2) | Enzyme degradation CDK2 (% remaining) @ 1 μM (CDK2) | Enzyme degradation CDK2 (% remaining) @ 10 μM (CDK2)
1 | O=C1CCC(N2C(=O)c3ccc(N4CCC(OCCN5CCN(c6ccc(Nc7ncnc8c7ncn8[C@H]7C[C@@H](NC(=O)Cc8ccccc8)C7)cc6)CC5)CC4)cc3C2=O)C(=O)N1 (some centres unmarked) [Compound 252, N-((1s,3s)-3-(6-((4-(4-(2-((1-(2-(2,6-dioxopiperidin-3-yl)-1,3-dioxoisoindolin-5-yl)piperidin-4-yl)oxy)ethyl)piperazin-1-yl)phenyl)amino)-9H-purin-9-yl)cyclobutyl)-2-phenylacetamide] | 60/60/60% | 60/60/60% | 60/60/60% | 30% | 30% | 50%
2 | O=C1CC[C@H](N2C(=O)c3cccc(NCC(=O)N4CCC(CCCN5CCN(c6ccc(Nc7ncnc8c7ncn8[C@H]7C[C@@H](NC(=O)Cc8ccccc8)C7)cc6)CC5)CC4)c3C2=O)C(=O)N1 [Compound 253, N-((1s,3s)-3-(6-((4-(4-(3-(1-((2-(2,6-dioxopiperidin-3-yl)-1,3-dioxoisoindolin-4-yl)glycyl)piperidin-4-yl)propyl)piperazin-1-yl)phenyl)amino)-9H-purin-9-yl)cyclobutyl)-2-phenylacetamide] | 0/0/0% | 0/0/0% | 0/0/0% | 20/—/20% | – | 20/—/20%
3 | O=C1CCC(N2C(=O)c3cccc(OCC(=O)N4CCC(CCCN5CCN(c6ccc(Nc7ncnc8c7ncn8[C@H]7C[C@@H](NC(=O)Cc8ccccc8)C7)cc6)CC5)CC4)c3C2=O)C(=O)N1 (some centres unmarked) [Compound 254, N-((1s,3s)-3-(6-((4-(4-(3-(1-(2-((2-(2,6-dioxopiperidin-3-yl)-1,3-dioxoisoindolin-4-yl)oxy)acetyl)piperidin-4-yl)propyl)piperazin-1-yl)phenyl)amino)-9H-purin-9-yl)cyclobutyl)-2-phenylacetamide] | 50% | 20% | 0% | 50% | 30% | 20%
4 | O=C1CC[C@H](N2C(=O)c3ccc(OCC(=O)N4CCC(CCCN5CCN(c6ccc(Nc7ncnc8c7ncn8[C@H]7C[C@@H](NC(=O)Cc8ccccc8)C7)cc6)CC5)CC4)cc3C2=O)C(=O)N1 [Compound 256, N-((1s,3s)-3-(6-((4-(4-(3-(1-(2-((2-(2,6-dioxopiperidin-3-yl)-1,3-dioxoisoindolin-5-yl)oxy)acetyl)piperidin-4-yl)propyl)piperazin-1-yl)phenyl)amino)-9H-purin-9-yl)cyclobutyl)-2-phenylacetamide] | 60% | 10% | 0% | 40% | 30% | 30%
5 | COc1ccc(C(=O)N2CCC(CCCN3CCN(c4ccc(Nc5ncnc6c5ncn6[C@H]5C[C@@H](NC(=O)Cc6ccccc6)C5)cc4)CC3)CC2)cc1N1CCC(=O)NC1=O [Compound 257, N-((1s,3s)-3-(6-((4-(4-(3-(1-(3-(2,4-dioxotetrahydropyrimidin-1(2H)-yl)-4-methoxybenzoyl)piperidin-4-yl)propyl)piperazin-1-yl)phenyl)amino)-9H-purin-9-yl)cyclobutyl)-2-phenylacetamide] | 80% | 50% | 50% | 0% | 20% | 20%
